Where only a bound is given, the exact number is not on record here.

The molecule `N#Cc1cc2ccc(O)cc2s1` came in with a melting point of 195 to 198 °C.
The figure for `CN=C(O)c1c(Cl)c(Cl)c(Sc2ccc(C)cc2)c(Cl)c1C(=O)O` is 209 to 216 °C; for `C[C@@H](Nc1ncnc2[nH]c(-c3ccc(CN4CCN(C(=O)OC(C)(C)C)CC4)cc3)cc12)c1ccccc1` it is 244 to 246 °C.
`COc1ccc(-n2nc(-c3ccc(C)cc3)c(C(N)=O)c2N)cc1`: the melting point is 174 to 175 °C.
The figure for `CCN(CC)S(=O)(=O)c1cc(C)c2c(c1)S(=O)(=O)NC(C1CCCCC1)=N2` is 206 to 208 °C; for `NNC(=O)c1cn2c(nc1=O)CCC2` it is 204 to 206 °C.
The figure for `O=S(=O)(Nc1cccc2cc(-c3ncns3)[nH]c12)c1cccs1` is 232 to 233 °C; for `CCc1cc(CCc2nc3ccccc3o2)c(=O)[nH]c1CO` it is 155 to 156 °C; for `O=C(Oc1cccc(F)c1)c1ccccc1F` it is 37.5 to 38.5 °C.
The value for `CCCCOC(=O)COc1cc(F)c(-c2nn(C)c(C(F)(F)F)c2Cl)cc1[N+](=O)[O-]` was 65 °C.
Molecule `Cc1cc(C)c2c(c1)CC2=NNC(N)=S` gave a melting point of 230 to 232 °C.
The figure for `COc1cc(OCc2ccccc2)ccc1C(=O)c1cc(Cl)ccc1N` is 97 to 98 °C; for `CCn1c(=O)c2[nH]c(/C=C/c3cccc(Oc4ccccc4)c3)nc2n(CC)c1=O` it is 241 to 243 °C.
In the case of `CCOC(=O)Cc1cnc(N)s1`, the melting point stood at 101 °C.
Turning to `CCC(=O)Nc1cccc(-c2ccnc3c(C(=O)c4ccccc4)cnn23)c1`, the melting point was 172 to 174 °C.
The value for `O=C(O)CCCCNS(=O)(=O)c1ccc(N2CCCCC2)cc1` was 115 to 120 °C; that for `C=CCN(CCC)C1COc2cccc(O)c2C1` (centres undefined) was 78 to 80 °C; that for `CCCCCCCCCCN(O)C(=O)NCCCC(=O)OC` was 89 to 90 °C.
`CC(=Cc1ccc(OCCCN(C)C)cc1)C(=O)O`: the melting point is above 190 °C.
In turn, `CC(C)(C)NC(=O)C(O)c1cccc(Cl)c1` (centres undefined) had a melting point of 93 to 99 °C.
The value for `O=C(O)C1=CC2C(=O)NC(=O)C2(CCO)C=C1` (centres undefined) was 197 to 198 °C; that for `COc1ncccc1-c1nc2c(N[C@H]3[C@@H](C(N)=O)[C@@H]4C=C[C@H]3C4)c(Br)cnc2[nH]1` was 201 °C.
In turn, `CCN(CC)C(=O)c1cc(-c2ccccc2)ccc1-c1ccccc1` showed a melting point of 128 to 130 °C.
The figure for `Cc1c(C(=O)CS(=O)Cc2ccc(Cl)cc2)sc2ccc(Cl)cc12` (centres undefined) is 168 to 170 °C; for `Cc1cc(C=O)ccc1C(=O)O` it is 196 to 198 °C.
The figure for `CCOC(=O)c1c(SC)nc(-c2ccc(F)cc2)n(-c2ccc(SC)cc2)c1=O` is 166 to 169 °C; for `FC(F)(F)c1ccc(-c2ccnc(Nc3ccccc3)n2)cc1` it is 162 to 163 °C.
Take `CCCc1c(COc2ccc(Cc3nnnn3CC(=O)O)cc2)ccc(C(C)=O)c1O`: the melting point was 205 to 210 °C.
The figure for `COc1ccc(C(CN(C)C)c2nnc3n2-c2ccc(Cl)cc2C(c2ccccc2)=NC3)cc1` (centres undefined) is 138 to 142 °C; for `CC(C)(C)c1ccc(OCCCCCCCCCCC(Cl)(Cl)C(=O)O)cc1` it is 56 to 57 °C; for `O=C(/C=C1/c2ccccc2N(C(=O)c2ccc(NC(=O)c3ccccc3-c3ccccc3)cc2)CCC1(F)F)NCc1ccccc1` it is 189 to 192 °C.
Turning to `CCc1c2nc(-c3cc(S(C)(=O)=O)ccc3OCC(C)C)[nH]c(=O)c2nn1C1CCN(C)CC1`, the melting point was in the range of 292 to 295 °C.
The value for `CCOC(=O)C(C)(C)Oc1ccc(-c2ccc(CC(=O)Nc3cc(Cl)ccc3OC)cc2)cc1` was below 20 °C; that for `O=C(NC/C=C\COc1cc(CN2CCCCC2)ccn1)c1csnn1` was 70 to 72 °C; that for `CCCSC1=NSc2cc(C)cnc2N1Cc1ccc(-c2ccccc2C(=O)O)cc1` was 237 to 239 °C.
In turn, `O=C(/C=C/c1ccc2ccccc2c1)Nc1cc(Cl)ccc1NS(=O)(=O)c1ccccc1` registered a melting point of 220 to 223 °C.
The value for `c1cnc2ccc(Cn3nnc4ccc(-c5ccc6c(c5)CCO6)nc43)cc2c1` was 131 to 133 °C; that for `O=C(O)Cc1ccc(NC(=O)C(Cc2ccccc2)NS(=O)(=O)c2ccc(Br)cc2)cc1` (racemic) was 184 to 185 °C; that for `O=C(O)c1nn(-c2ccc(Cl)cc2)c2c1CCCC2` was 218 °C.
The figure for `CC1=C(C(=O)OC(C)(C)C)C(c2ccc(Cl)cc2)C(C(=O)OC(C)(C)C)=C(C)N1` is 192 °C; for `CCOC(=O)Cc1sc(Sc2cc3ccccc3c(Cl)n2)nc1C` it is 115 to 117 °C; for `O=[N+]([O-])c1ccc([N+](=O)[O-])c(OCC=CCBr)c1` it is 81 to 83 °C.
Consider `O=C(O)CCP(=O)(O)CCC(=O)O`, for which the melting point lay within 156 to 159 °C.
In turn, `CS(=O)(=O)OCC(C#N)(c1ccc(Cl)cc1)c1ccccc1Cl` (centres undefined) returned a melting point of 124 to 127 °C.
The value for `O=C(C=CC=C(c1ccc(Cl)cc1)c1ccc(Cl)cc1)Nc1ccc(C(=O)O)cc1` was 273 to 276 °C; that for `CC(C)(ON1C(=O)c2ccccc2C1=O)C(=O)O` was 133 to 135 °C; that for `N=C(N)c1ccc2[nH]cc(CCN3C(=O)c4ccccc4C3=O)c2c1` was 206 to 209 °C.
The figure for `CCCCCCCCCN1C(=O)c2ccc3c4cccc5cccc(c6ccc(c2c36)C1=O)c54` is 201 °C; for `CN(C)C1CCN(c2ccc(-c3[nH]nc4c3C(=O)c3c(NC(=O)NN5CCOCC5)cccc3-4)cc2)CC1` it is 258 °C.
As to `O=C(OCCl)c1c(Cl)cccc1Cl`, the melting point was 70 to 72 °C.
Molecule `N#Cc1cccc(N2CCc3cc(OCc4ccccc4)ccc32)c1` displayed a melting point of 102 to 104 °C.
Regarding `O=C1C(c2ccccc2)=C(c2cccs2)C(=O)N1c1ccc(Cl)cc1`, the melting point was 176 to 177 °C.
The value for `O=[N+]([O-])c1ccccc1-c1oc2ccc(CBr)cc2c1Br` was 118 °C; that for `C=CCn1nc(-c2ccc(OC)cc2)c(-c2ccc(OC)cc2)cc1=O` was 114 to 115 °C.
`CCCNC(=S)NC1=Nc2ccc(OC(F)(F)F)cc2CS1` returned a melting point of 148 to 151 °C.
Turning to `CC[C@H]1[C@@H](O)CC(=O)N1c1ccc(C#N)c(Cl)c1F`, the melting point lay within 142 to 144 °C.
The figure for `COC(=O)/C=C/n1cnc2ccc(C(C)C)cc2c1=O` is 145 °C; for `Nc1cccc2c1C(=O)N(c1ccc(OC(F)(F)F)cc1)C2=O` it is 161 to 162 °C; for `CSc1ccc2c(c1)C(=O)OC2=O` it is 157 to 160 °C.
`CC(O)CC(=O)c1cccc2c1nc(-c1c(F)cccc1F)n2Cc1c(F)cccc1F` (centres undefined): the melting point is 149 to 150 °C.
The value for `COc1ccc(C(=O)Nc2ccc3ccc(C=O)nc3n2)cc1` was 194 °C; that for `Oc1ccc(-c2nc(-c3ccccc3)[nH]c2-c2ccc(O)cc2)cc1` was 327 to 330 °C.
The value for `CSc1ccccc1C(=O)Nc1ccccc1` was 148 to 149 °C; that for `Cc1ccc(NC(=O)c2cccc(N(C)C)c2)cc1NC(=O)c1ccc(N(C)CCCN(C)C)cc1` was 178 to 179 °C.

What is called melting point is the temperature, or range, at which the solid turns liquid.
